Results as given in ChEMBL document CHEMBL1201862, “PubChem BioAssay data set” (2004).
Calls of active or inactive are those of the source.

Experiments:
[1] = target: Eukaryotic translation initiation factor 4E (Mus musculus, UniProt P63073); test: eIF4E–eIF4G protein interaction inhibitors, dose response, biochemical, TR-FRET (AID 855); assay type: functional;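 note: potency for disrupting eIF4E binding to eIF4GI seen as loss of FRET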
[2] = target: Protein-tyrosine kinase 2-beta (Homo sapiens, UniProt Q14289);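 note: potency of inhibitors of PYK2 kinase phosphorylation of poly-GT substrate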
[3] = target: T1, Bcl-2-like protein 10 (Homo sapiens, UniProt Q9HD36); test: displacers of TR3 peptide from Bcl-B, primary screen, selectivity assay for Bfl-1 inhibitor project, biochemical, fluorescence polarization, FITC-TR3 peptide (AID 748);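 note: fluorescence polarization from a fluorescein-labelled TR3 peptide binding purified Bcl-B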
T1 sequence (Q9HD36 whole entry): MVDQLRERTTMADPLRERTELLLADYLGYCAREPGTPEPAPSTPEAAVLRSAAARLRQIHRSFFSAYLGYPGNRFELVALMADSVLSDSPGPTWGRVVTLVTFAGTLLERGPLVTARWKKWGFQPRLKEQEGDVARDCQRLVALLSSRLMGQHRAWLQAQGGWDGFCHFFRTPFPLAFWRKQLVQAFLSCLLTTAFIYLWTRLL

[4] = target: T2, Estrogen receptor (Homo sapiens, UniProt P03372); test: potentiators of ERα–SRC-1 coactivator binding, dose response, biochemical, TR-FRET, ERα LBD (AID 737)
T2 sequence (P03372 whole entry): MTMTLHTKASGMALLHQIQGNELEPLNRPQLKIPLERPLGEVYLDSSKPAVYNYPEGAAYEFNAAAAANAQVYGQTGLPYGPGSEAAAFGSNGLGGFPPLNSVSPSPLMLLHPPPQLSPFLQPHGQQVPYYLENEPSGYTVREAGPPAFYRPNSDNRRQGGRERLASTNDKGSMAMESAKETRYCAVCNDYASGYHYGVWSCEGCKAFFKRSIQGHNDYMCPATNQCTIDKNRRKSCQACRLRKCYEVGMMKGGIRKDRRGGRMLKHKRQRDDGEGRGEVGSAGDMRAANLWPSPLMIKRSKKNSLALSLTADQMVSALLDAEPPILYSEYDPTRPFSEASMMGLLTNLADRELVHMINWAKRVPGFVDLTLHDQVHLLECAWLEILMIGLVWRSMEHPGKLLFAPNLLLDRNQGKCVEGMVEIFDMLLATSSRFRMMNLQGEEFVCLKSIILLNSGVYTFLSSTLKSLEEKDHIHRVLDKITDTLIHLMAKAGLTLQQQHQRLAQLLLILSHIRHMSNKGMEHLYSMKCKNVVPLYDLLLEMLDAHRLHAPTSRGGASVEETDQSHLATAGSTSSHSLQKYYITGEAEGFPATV

[5] = Luminescence Cell-Based Dose Confirmation to Identify Activators of 5'UTR Stem-Loop Driven Alpha-Synuclein mRNA Translation in H4 Neuroglioblastoma Cells. [Related pubchem assays: 1829 (Project Summary), 1814 (Primary HTS)]; assay type: functional
[6] = Luminescence Cell-Based Dose Response to Identify Activators of 5'UTR Stem-Loop Driven Prion Protein mRNA Translation in H4-C Neuroglioblastoma Cells. [Related pubchem assays: 1829 (Project Summary), 1814 (Primary HTS)]; assay type: functional
[7] = system: H4; test: Luminescence Cell-Based Dose Response HTS to Identify Activators of 5'UTR Stem-Loop Driven Prion Protein mRNA Translation in H4 Neuroglioblastoma Cells. [Related pubchem assays: 1829 (Project Summary), 1814 (Primary HTS)]; assay type: functional; conditions: Homo sapiens
[8] = Luminescence Cell-Based Dose Response HTS to Identify Activators of Luciferase Translation or Activity in H4 […] Cells. [Related pubchem assays: 1829 (Project Summary), 1814 (Primary HTS)]; assay type: functional
[9] = Luminescence Cell-Based Dose Response to Identify Activators of Luciferase Translation or Activity in H4-C Neuroglioblastoma Cells. [Related pubchem assays: 1829 (Project Summary), 1814 (Primary HTS)]; assay type: functional
[10] = target: T3, Aminopeptidase N (Plasmodium falciparum FcB1/Columbia, UniProt O96935); test: P. falciparum M1AAP inhibitors, biochemical, fluorogenic H-Leu-NHMec substrate, 1536-well (AID 1445); parameters: species or system Plasmodium falciparum 3D7, 3D7
T3 sequence (O96935 whole entry): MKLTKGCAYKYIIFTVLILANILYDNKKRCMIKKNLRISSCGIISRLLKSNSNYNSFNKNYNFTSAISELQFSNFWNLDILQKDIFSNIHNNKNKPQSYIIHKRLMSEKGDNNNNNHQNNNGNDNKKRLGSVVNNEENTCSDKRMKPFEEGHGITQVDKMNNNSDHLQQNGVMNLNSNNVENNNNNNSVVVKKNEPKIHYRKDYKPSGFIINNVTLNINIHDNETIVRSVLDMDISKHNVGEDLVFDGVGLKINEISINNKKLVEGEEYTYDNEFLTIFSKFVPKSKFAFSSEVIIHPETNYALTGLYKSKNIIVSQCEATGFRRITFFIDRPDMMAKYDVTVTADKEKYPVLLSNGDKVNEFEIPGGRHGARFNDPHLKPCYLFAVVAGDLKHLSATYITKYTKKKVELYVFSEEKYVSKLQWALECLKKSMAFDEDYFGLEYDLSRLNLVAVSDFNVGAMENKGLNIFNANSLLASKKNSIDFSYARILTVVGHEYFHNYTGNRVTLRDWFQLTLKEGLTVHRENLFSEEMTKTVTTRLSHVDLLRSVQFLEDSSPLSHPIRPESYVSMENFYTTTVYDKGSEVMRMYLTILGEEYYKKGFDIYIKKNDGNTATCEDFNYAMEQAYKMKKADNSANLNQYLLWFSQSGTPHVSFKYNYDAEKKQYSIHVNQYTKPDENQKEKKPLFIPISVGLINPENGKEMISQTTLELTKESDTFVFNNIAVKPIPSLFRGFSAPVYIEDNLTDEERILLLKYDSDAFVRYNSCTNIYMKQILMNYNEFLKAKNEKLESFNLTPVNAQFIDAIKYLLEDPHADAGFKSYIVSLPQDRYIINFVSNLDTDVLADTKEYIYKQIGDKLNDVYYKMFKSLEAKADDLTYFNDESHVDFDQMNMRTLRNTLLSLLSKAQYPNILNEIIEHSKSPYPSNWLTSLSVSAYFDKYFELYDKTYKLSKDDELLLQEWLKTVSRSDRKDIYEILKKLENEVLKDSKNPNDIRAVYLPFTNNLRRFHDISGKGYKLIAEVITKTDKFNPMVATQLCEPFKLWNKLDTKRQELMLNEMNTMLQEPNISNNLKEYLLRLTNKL

[11] = target: Procathepsin L (Homo sapiens, UniProt P07711); test: cathepsin L inhibitors, dose response, counter-screen for M1/M17 aminopeptidase inhibitor project, biochemical, QFRET, 1536-well (AID 2214)
[12] = target: Aspartyl aminopeptidase (Plasmodium falciparum 3D7, UniProt Q8I2J3); test: Counterscreen for inhibitors of M1 and M17 aminopeptidases: QFRET-based biochemical high throughput dose response assay for inhibitors of the Plasmodium falciparum M18 Aspartyl Aminopeptidase (PFM18AAP). [Related PubChem assays: 1619 (Screening assay (M17LAP inhibitors).), 1445 (Screening assay (M1AAP inhibitors).)]
[13] = Luminescence Cell-Based Dose Confirmation HTS to Identify Activators of 5'UTR Stem-Loop Driven Alpha-Synuclein mRNA Translation in H4 Neuroglioblastoma Cells. [Related pubchem assays: 1829 (Project Summary), 1814 (Primary HTS)]; assay type: functional
[14] = target: Mitogen-activated protein kinase 10 (Homo sapiens, UniProt P53779); test: Dose response biochemical screening assay for inhibitors of c-Jun N-Terminal Kinase 3 (JNK3). [Related pubchem assays: 746 ]
[15] = target: Cytochrome P450 2C9 (Homo sapiens, UniProt P11712)
[16] = target: Heat shock protein HSP 90-alpha (Homo sapiens, UniProt P07900); test: Luminescence-based dose response biochemical high throughput screening assay for inhibitors of the Heat Shock Protein 90 (HSP90). [Related pubchem assays: 1831 (Summary AID.), 1846 (Confirmation screen.), 1789 (Primary screen.)]
[17] = target: T4, Polyadenylate-binding protein 1 (Homo sapiens, UniProt P11940); test: PABP1 MLLE–PAM2 interaction inhibitors, dose response, miRNA deadenylation inhibitor project, biochemical, fluorescence polarization, Cy5-PAM2 peptide, secondary (AID 602260); assay type: functional; conditions: read-out: IC50_Mean
[18] = target: T4, Polyadenylate-binding protein 1; test: PABP1 MLLE–PAM2 binding inhibitor potency, dose response, biochemical, fluorescence polarization, FITC-PAM2 peptide (AID 602259); assay type: functional; conditions: read-out: IC50_Mean

T4 sequence (P11940 whole entry): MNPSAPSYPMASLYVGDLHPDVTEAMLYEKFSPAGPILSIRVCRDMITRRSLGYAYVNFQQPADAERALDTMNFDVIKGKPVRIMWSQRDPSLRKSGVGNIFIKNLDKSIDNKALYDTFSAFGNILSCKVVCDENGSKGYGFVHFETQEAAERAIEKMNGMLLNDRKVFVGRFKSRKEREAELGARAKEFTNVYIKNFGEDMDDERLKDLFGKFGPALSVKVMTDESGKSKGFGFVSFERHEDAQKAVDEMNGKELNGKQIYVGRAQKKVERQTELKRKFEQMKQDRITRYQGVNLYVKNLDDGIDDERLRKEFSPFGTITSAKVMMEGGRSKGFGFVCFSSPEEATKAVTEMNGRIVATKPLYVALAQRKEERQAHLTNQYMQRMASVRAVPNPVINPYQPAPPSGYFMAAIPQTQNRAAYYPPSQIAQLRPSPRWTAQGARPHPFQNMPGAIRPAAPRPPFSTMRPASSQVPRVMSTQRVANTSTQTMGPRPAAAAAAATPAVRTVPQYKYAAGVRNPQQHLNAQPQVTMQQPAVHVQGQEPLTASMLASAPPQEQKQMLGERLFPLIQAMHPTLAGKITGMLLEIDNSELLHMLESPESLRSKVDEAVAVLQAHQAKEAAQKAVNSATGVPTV
Sequence of Protein-tyrosine kinase 2-beta (Q14289 whole entry): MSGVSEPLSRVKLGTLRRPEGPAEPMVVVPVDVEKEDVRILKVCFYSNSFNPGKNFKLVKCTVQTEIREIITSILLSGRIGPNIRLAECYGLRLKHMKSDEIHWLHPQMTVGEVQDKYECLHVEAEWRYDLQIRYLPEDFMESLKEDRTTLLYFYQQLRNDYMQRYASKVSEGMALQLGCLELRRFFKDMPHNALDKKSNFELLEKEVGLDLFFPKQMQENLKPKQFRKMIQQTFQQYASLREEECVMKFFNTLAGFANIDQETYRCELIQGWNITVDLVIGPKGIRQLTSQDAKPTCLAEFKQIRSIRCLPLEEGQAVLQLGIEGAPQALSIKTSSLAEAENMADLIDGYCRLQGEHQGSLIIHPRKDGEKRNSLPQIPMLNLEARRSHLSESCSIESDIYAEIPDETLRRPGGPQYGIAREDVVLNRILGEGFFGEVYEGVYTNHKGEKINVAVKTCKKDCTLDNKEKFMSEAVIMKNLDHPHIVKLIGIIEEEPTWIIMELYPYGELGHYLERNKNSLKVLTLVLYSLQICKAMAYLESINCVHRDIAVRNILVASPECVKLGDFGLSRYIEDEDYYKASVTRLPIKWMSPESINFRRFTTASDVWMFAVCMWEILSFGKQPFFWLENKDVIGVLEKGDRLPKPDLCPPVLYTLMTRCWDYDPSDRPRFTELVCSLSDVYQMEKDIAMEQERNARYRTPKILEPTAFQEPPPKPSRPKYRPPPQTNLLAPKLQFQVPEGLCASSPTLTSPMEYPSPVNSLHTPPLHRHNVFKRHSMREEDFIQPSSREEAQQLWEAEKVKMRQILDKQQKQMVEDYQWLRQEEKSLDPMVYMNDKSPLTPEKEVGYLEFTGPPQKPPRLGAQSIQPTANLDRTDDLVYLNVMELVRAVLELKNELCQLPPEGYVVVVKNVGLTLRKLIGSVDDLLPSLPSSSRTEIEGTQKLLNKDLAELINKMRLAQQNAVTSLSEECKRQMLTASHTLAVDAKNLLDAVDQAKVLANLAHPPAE
Sequence of Procathepsin L (P07711 whole entry): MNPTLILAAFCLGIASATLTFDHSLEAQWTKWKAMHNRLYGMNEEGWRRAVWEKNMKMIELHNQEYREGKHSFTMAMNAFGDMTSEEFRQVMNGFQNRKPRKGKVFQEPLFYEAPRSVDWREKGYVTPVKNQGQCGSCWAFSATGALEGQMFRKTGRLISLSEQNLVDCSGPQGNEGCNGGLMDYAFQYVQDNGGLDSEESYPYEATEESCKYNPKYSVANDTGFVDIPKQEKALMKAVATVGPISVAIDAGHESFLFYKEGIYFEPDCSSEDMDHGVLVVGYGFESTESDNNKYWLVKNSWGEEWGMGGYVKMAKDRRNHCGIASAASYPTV
Sequence of Cytochrome P450 2C9 (P11712 whole entry): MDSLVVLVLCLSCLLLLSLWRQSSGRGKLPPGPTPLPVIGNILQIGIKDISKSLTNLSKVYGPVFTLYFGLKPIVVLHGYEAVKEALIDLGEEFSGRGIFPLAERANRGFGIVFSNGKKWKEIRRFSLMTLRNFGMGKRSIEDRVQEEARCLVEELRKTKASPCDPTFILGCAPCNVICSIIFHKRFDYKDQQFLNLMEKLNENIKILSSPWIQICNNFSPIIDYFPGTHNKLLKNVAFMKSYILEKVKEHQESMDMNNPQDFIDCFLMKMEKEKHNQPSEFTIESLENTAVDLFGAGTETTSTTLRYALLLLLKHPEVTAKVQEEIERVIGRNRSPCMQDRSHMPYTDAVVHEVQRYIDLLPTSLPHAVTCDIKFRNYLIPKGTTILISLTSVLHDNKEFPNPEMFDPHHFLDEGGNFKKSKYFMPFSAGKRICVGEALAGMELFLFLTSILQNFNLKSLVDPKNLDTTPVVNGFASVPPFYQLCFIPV
Sequence of Eukaryotic translation initiation factor 4E (P63073 whole entry): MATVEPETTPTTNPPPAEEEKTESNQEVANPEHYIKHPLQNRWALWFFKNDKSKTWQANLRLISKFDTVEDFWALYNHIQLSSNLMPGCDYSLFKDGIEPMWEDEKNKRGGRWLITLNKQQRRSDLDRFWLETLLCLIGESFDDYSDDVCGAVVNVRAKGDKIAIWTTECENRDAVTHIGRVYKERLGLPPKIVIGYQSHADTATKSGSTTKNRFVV
Sequence of Aspartyl aminopeptidase (Q8I2J3 whole entry): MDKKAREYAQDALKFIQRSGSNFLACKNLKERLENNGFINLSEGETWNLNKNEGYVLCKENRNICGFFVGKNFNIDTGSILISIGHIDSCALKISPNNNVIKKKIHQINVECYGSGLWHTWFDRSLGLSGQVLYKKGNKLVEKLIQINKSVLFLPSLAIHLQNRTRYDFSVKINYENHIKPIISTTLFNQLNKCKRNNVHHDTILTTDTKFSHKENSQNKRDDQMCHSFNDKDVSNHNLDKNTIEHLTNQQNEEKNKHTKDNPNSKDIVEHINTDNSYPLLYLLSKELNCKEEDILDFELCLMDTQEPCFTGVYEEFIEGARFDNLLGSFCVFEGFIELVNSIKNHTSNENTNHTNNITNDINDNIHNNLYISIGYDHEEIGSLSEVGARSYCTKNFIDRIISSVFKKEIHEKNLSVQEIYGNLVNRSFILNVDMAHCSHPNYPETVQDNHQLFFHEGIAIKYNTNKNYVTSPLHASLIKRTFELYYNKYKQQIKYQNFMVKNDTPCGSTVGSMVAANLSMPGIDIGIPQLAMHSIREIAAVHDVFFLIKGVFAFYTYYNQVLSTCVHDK
Sequence of Mitogen-activated protein kinase 10 (P53779 whole entry): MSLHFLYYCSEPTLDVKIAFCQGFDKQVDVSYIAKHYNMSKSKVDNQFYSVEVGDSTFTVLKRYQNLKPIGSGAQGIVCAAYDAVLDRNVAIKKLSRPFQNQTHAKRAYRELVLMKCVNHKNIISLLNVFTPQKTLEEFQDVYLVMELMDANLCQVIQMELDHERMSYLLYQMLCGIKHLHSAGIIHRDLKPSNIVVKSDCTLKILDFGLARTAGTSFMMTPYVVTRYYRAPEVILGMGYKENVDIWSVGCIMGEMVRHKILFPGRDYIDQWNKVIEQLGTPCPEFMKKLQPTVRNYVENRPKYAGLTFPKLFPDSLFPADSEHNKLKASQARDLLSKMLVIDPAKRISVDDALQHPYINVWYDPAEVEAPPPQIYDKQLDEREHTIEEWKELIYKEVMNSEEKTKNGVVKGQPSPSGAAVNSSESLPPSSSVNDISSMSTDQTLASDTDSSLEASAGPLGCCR

Cc1cc(N)ccc1N1CCCC1
IC50 [1]: 33.1 µM (inactive)
IC50 [2]: 1.82 µM (active)
IC50 [3]: 0.963 µM (active)

COc1ccccc1-n1c(SCC(=O)NC2CCCCC2)nc2c(c1=O)SCC2
EC50 [4]: 6.62 µM (not active)

CC(C)(C)c1ccc(OC(=O)N2CCCCC2)cc1
EC50 [5]: 1.13 µM (active)
EC50 [6]: 1.01 µM (active)
EC50 [7]: 44.5 µM (active)
EC50 [8]: < 0.1 µM (active)
EC50 [9]: 0.364 µM (active)

Cc1ccc(OC(=O)c2ccccc2P(=O)(O)O)cc1
IC50 [2]: 9.74 µM (active)

O=C(O)CCC(=O)N1N=C(c2c(-c3ccccc3)c3cc(Cl)ccc3[nH]c2=O)CC1c1ccco1 (centres undefined)
IC50 [10]: 13 µM (active)
IC50 [11]: > 59.6 µM (not active)
IC50 [12]: > 73.5 µM (not active)

Cn1cc(Br)c(C(=O)Nc2sc3c(c2C(N)=O)CCCC3)n1
EC50 [5]: > 12 µM (not active)
EC50 [6]: > 12 µM (not active)
EC50 [7]: 0.117 µM (active)
EC50 [13]: 13.3 µM (active)
EC50 [8]: 13.6 µM (active)
EC50 [9]: > 12 µM (not active)

COC(=O)c1cccc(Cn2nnc3ccccc3c2=O)c1
IC50 [14]: 78.8 µM (not active)

CCN(CC)c1ccc(SS(=O)(=O)O)cc1
AC50 [15]: 5.01 µM (inconclusive)
IC50 [16]: 4.53 µM (active)
IC50 [17]: > 66 µM (inactive)
IC50 [18]: > 66 µM (inactive)
